Reference: patent publication US20050075354A1, “Complexes of E-2-Methoxy-N(3-{4-[3-methyl-4-(6-methyl-pyridin-3-yloxy)-phenylamino]-quinzazolin-6-YL}-allyl)-acetamide, their method of production, and use” (Pfizer Inc, priority 2002, published 2005)

Key:
Type in all cases: physicochemical
[1] = Hygroscopicity (weight gain at relative humidity); settings: for Hygroscopicity (by weight): at 90% relative humidity; for Hygroscopicity (general statement): description, no conditions stated
[2] = Chemical stability (general statement); settings: description, no conditions stated
[3] = Hygroscopicity in relative humidity chambers; settings: after 16 hours
Experimental: The material was evaluated for hygroscopicity in relative humidity chambers.

| SMILES | Hygroscopicity (by weight) [1] | Hygroscopicity (general statement) [1] | Chemical stability [2] | other results |
| --- | --- | --- | --- | --- |
| CCS(=O)(=O)O.CCS(=O)(=O)O.COCC(=O)NC/C=C/c1ccc2ncnc(Nc3ccc(Oc4ccc(C)nc4)c(C)c3)c2c1 [diesylate complex, E-2-Methoxy-N-(3-{4-[3-methyl-4-(6-methyl-pyridin-3-yloxy)-phenylamino]-quinazolin-6-yl}-allyl)-acetamide diesylate] | 45% |  |  |  |
| COCC(=O)NC/C=C/c1ccc2ncnc(Nc3ccc(Oc4ccc(C)nc4)c(C)c3)c2c1.O=C(O)/C=C\C(=O)O.O=C(O)/C=C\C(=O)O [dimaleate, E-2-Methoxy-N-(3-{4-[3-methyl-4-(6-methyl-pyridin-3-yloxy)-phenylamino]-quinazolin-6-yl}-allyl)-acetamide Dimaleate] | 0.6% | non-hygroscopic | chemically stable |  |
| COCC(=O)NC/C=C/c1ccc2ncnc(Nc3ccc(Oc4ccc(C)nc4)c(C)c3)c2c1.O=[N+]([O-])O.O=[N+]([O-])O [dinitrate, E-2-Methoxy-N-(3-{4-[3-methyl-4-(6-methyl-pyridin-3-yloxy)-phenylamino]-quinazolin-6-yl}-allyl)-acetamide dinitrate] | ~7% |  |  |  |
| COCC(=O)NC/C=C/c1ccc2ncnc(Nc3ccc(Oc4ccc(C)nc4)c(C)c3)c2c1.O=S(=O)(O)c1ccccc1 [monobesylate, E-2-Methoxy-N-(3-{4-[3-methyl-4-(6-methyl-pyridin-3-yloxy)-phenylamino]-quinazolin-6-yl}-allyl)-acetamide monobesylate] |  |  |  | Water sorption ([3]; 75% RH chamber): no significant water sorption; Weight increase ([3]; 94% RH chamber): 6.7%; Deliquescence ([3]; 100% relative humidity chamber): deliquescence was observed |
| COCC(=O)NC/C=C/c1ccc2ncnc(Nc3ccc(Oc4ccc(C)nc4)c(C)c3)c2c1.Cl [monohydrochloride, E-2-Methoxy-N-(3{4-[3-methyl-4-(6-methyl-pyridin-3-yloxy)-phenylamino]-quinazolin-6-yl}-allyl)-acetamide Monohydrochloride] |  | non-hygroscopic | chemically stable |  |
| COCC(=O)NC/C=C/c1ccc2ncnc(Nc3ccc(Oc4ccc(C)nc4)c(C)c3)c2c1.O=P(O)(O)O [monophosphate, E-2-Methoxy-N-(3{4-[3-methyl-4-(6-methyl-pyridin-3-yloxy)-phenylamino]-quinazolin-6-yl}-allyl)-acetamide Monophosphate] |  | non-hygroscopic | chemically stable |  |
| CC1(C)C2CCC1(CS(=O)(=O)O)C(=O)C2.COCC(=O)NC/C=C/c1ccc2ncnc(Nc3ccc(Oc4ccc(C)nc4)c(C)c3)c2c1 [racemic camsylate, racemic E-2-Methoxy-N-(3-{4-[3-methyl-4-(6-methyl-pyridin-3-yloxy)-phenylamino]-quinazolin-6-yl}-allyl)-acetamide camsylate] |  |  |  | Hygroscopicity (in words) ([1]; camsylate samples, conditions not stated): hygroscopic to the point of deliquescence |
